Measurements: BindingDB's records for patent US11884682 (Nanjing Immunophage Biotech Co., 2024)

Target: T1, Macrophage migration inhibitory factor (Homo sapiens, UniProt P14174)
T1 sequence (P14174 whole entry): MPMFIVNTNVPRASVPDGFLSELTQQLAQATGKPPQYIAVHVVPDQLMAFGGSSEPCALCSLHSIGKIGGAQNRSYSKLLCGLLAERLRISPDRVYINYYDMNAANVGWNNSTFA
Assay: MIF Enzymatic Assay
Description: Assays were performed in small-volume clear-bottom black 96 or 384-well polystyrene plates (Greiner Bio-One). First, 2 μL of the enzyme solution containing 6 nM of MIF in DPBS, 0.025% w/v BSA, and 300 μM CHAPS was dispensed onto sample and negative control wells using Multidrop Combi with metallic tip cassettes (Thermo Fisher Scientific) previously treated with Sigmacote. Then, 2 μL of the same buffer without MIF was dispensed onto positive control wells. […] In order to remove bubbles, the plate was centrifuged in an Allegra 25R centrifuge (Beckman Coulter, Inc., Brea, CA) at 1000 rpm for 2 min at room temperature. Then, the plate was read in an EnVision. Final concentrations of enzyme and substrate were 3 nM and 1.5 mM, respectively. Initial rates were calculated for each well as the slope of the absorbance progress curve.

IC50 [nM] | SMILES
575 | COc1cc(N2CCC(O)C2)ccc1C(=O)NCc1nnc(-c2cccs2)o1 (stereo not drawn) [US11884682, Compound 78]
708 | COc1cc(NCCO)ccc1C(=O)NCc1nnc(-c2cccs2)o1 [US11884682, Compound 79]
2510 | COc1cc(OC2CCNC2)ccc1C(=O)NCc1nnc(-c2cccs2)o1 (stereo not drawn) [US11884682, Compound 81]
